# Where a name gives a salt, the structure may show the parent alone.
# How the values were obtained:
# CHIKV replicon = experiment: microbe, parasite or virus in culture; assay type: cell-based, Chikungunya virus (CHIKV)
Compound,CHIKV replicon % left (CHIKV replicon),"SFV replication % left (surviving fraction, remaining percentage of SFV replication) (SFV-Rluc)"
CN(C)CCC=C1c2ccccc2COc2ccccc21 [Doxepin hydrochloride],87.2%,21.6%
COc1cc(-c2[o+]c3cc(O)cc(O[C@@H]4O[C@H](CO)[C@@H](O)[C@H](O)[C@H]4O)c3cc2O[C@@H]2O[C@H](CO)[C@@H](O)[C@H](O)[C@H]2O)cc(OC)c1O.[Cl-] [Malvin chloride],72.3%,15.4%
O=C(O)Cc1ccccc1O [2-Hydroxyphenylacetic acid],14.3%,7.3%
CN(Cc1cc(Br)cc(Br)c1N)C1CCCCC1 [Bromhexine hydrochloride],82.8%,64.8%
CC(C)(C)NC[C@H](O)COc1ccccc1C1CCCC1 [Penbutolol],39.4%,45.0%
"CC12CCC(CC1=O)C2(C)C (racemic) [DL-Camphon, Campher (synth.)]",105.4%,83.9%
"O=C(O)c1c(O)cccc1O [2,6-Dihydroxybenzoic acid]",62.3%,118.7%
O=C(O[C@@H]1Cc2c(O)cc(O)cc2O[C@@H]1c1cc(O)c(O)c(O)c1)c1cc(O)c(O)c(O)c1 [(-)-Epigallocatechin gallate],90.4%,155.3%
Cc1cc(C(C)(C)C)c(O)c(C(C)(C)C)c1 [Butylated hydroxytoluene],47.8%,72.6%
CCC(C)NCC(O)c1ccc2c(c1)CCCC2 (centres unmarked) [Butidrine],89.2%,73.1%
CC(=O)c1ccccc1O [2-Hydroxyacetophenone],99.4%,129.7%
Oc1cccc(O)c1 [Resorcinol],102.9%,67.1%
CC(C)OC(=O)c1cc(O)c(O)c(O)c1 [Isopropyl gallate],79.3%,124.0%
CC(=O)CC(c1ccccc1)c1c(O)c2ccccc2oc1=O (centres unmarked) [3-(a-Acetonylbenzyl)-4-hydroxycoumarin],57.2%,79.5%
Nc1ccc(Cl)cc1C(=O)c1ccccc1F [2-Amino-5-chloro-2'-fluorobenzophenone],82.2%,167.4%
Cc1ccnc(NS(=O)(=O)c2ccc(N)cc2)n1 [Sulfamerazine],91.1%,83.8%
CN1C(=O)C(O)N=C(c2ccccc2)c2cc(Cl)ccc21 (centres unmarked) [Temazepam],79.5%,91.5%
CN1C(=O)NC(=O)C(C)(C2=CCCCC2)C1=O (centres unmarked) [Hexobarbital],98.2%,121.3%
O=c1cc(-c2ccc(O)c(O)c2)oc2cc(O)cc(O)c12 [Luteolin],95.0%,71.3%
Oc1cc(O)c2c(c1)O[C@H](c1ccc(O)c(O)c1)[C@@H](O)C2 [(+)-Catechin],96.5%,64.5%

Compound,CHIKV replicon % left (CHIKV replicon),"SFV replication % left (surviving fraction, remaining percentage of SFV replication) (SFV-Rluc)"
Cc1ccc(O)c(O)c1 [4-Methyl pyrocatechol],98.8%,111.1%
NCC(O)c1ccc(O)cc1 (centres unmarked) [Octopamine hydrochloride],88.4%,102.1%
CC(C)(C)NCC(O)COc1ccccc1C#N (centres unmarked) [Bunitrolol],58.9%,40.7%
O=c1cc(-c2ccccc2)oc2ccccc12 [Flavone],39.4%,52.2%
CCCCNC(=O)c1ccc(Cl)cc1O [Buclosamide],100.6%,49.6%
CCCNc1ccc(C(=O)OCC(O)CN(C)C)cc1 (centres unmarked) [Cornecaine],80.5%,77.3%
O=c1oc2c(O)c(O)cc3c(=O)oc4c(O)c(O)cc1c4c23 [Ellagic acid],71.1%,64.9%
C=CCOc1ccccc1OCC(O)CNC(C)C (centres unmarked) [Oxprenolol hydrochloride],84.3%,92.4%
Nc1ccc(S(N)(=O)=O)cc1 [Sulfanilamide],100.5%,64.2%
CC(C)(C)NC[C@H](O)COc1cccc2c1CCCC2=O [I-Bunolol],105.4%,59.6%
COCCc1ccc(OCC(O)CNC(C)C)cc1 (centres unmarked) [Metoprolol tartrate],78.2%,65.7%
Benzalkonium chloride,-0.5%,0.0294%
COc1cc2ccc(=O)oc2c(O)c1O [Fraxetin],95.4%,103.6%
CCN(CC)C(=O)c1ccc(O)c(OC)c1 [Ethamivan],43.1%,85.5%
CCS(=O)(=O)C(C)(C)S(=O)(=O)CC [Sulfonmethane],102.7%,86.6%
CCN(CCO)CCCC(C)Nc1ccnc2cc(Cl)ccc12 (centres unmarked) [Hydroxychloroquine sulfate],100.1%,128.9%
CCN(CC)CCOC(=O)c1ccc(N)cc1 [Procaine hydrochloride],84.3%,105.4%
Cc1cc(=O)oc2cc(O)ccc12 [Methylumbelliferone],21.1%,12.0%
COc1cnc(NS(=O)(=O)c2ccc(N)cc2)nc1 [Sulfameter],79.2%,99.0%
COc1cc(C=O)ccc1O [Vanillin],71.7%,47.9%

Compound,CHIKV replicon % left (CHIKV replicon),"SFV replication % left (surviving fraction, remaining percentage of SFV replication) (SFV-Rluc)"
Cl.Cl.OCCN1CCN(CCC=C2c3ccccc3Sc3ccc(Cl)cc32)CC1 [Clopenthixol dihydrochloride],40.1%,55.2%
CC(CN1c2ccccc2Sc2ccccc21)N(C)C (centres unmarked) [Promethazine hydrochloride],39.2%,48.8%
CC(C)Cc1ccc(CC(=O)O)cc1 [Ibufenac],78.9%,102.2%
CC(=O)NS(=O)(=O)c1ccc(N)cc1 [Sulfacetamide],50.4%,100.8%
Cc1cccc(Nc2ccccc2C(=O)O)c1C [Mefenamic acid],99.4%,103.5%
CCC(CN(C)C)(CN(C)C)OC(=O)c1ccccc1.Cl [Amydricaine hydrochloride],74.3%,43.4%
NC(=O)N1c2ccccc2C=Cc2ccccc21 [Carbamazepine],100.2%,57.2%
COc1ccc2cc([C@H](C)C(=O)O)ccc2c1 [Naproxen],89.2%,92.7%
CCN(CC)C(C)CN1c2ccccc2Sc2ccccc21 (centres unmarked) [Ethopropazine hydrochloride],59.8%,20.1%
Cc1nnc2n1-c1ccc(Cl)cc1C(c1ccccc1Cl)=NC2 [Triazolam],40.1%,76.5%
COc1cc(C(=O)O)cc(OC)c1O [Syringic acid],54.4%,61.1%
CNCCC=C1c2ccccc2CCc2ccccc21 [Nortriptyline hydrochloride],29.1%,5.3%
CCCCCCCCCCCCOC(=O)c1cc(O)c(O)c(O)c1 [Lauryl gallate],6.1%,12.3%
CCCCNCC(O)c1ccc(O)cc1 (centres unmarked) [Bamethan],96.9%,67.1%
O=C(O)c1ccccc1C(=O)O [Phthalic acid],96.6%,143.7%
CC(C(=O)O)c1cccc(C(=O)O)c1 (centres unmarked) [2-(3-Carboxyphenyl)propionic acid],94.3%,105.7%
CCCCOC(=O)c1ccc(N)cc1 [Butyl 4-Aminobenzoate],102.7%,76.6%
COc1ccc(NS(=O)(=O)c2ccc(N)cc2)nn1 [Sulfamethoxypyridazine],82.0%,110.0%

# Source: PMC3242765, “Inhibitors of Alphavirus Entry and Replication Identified with a Stable Chikungunya Replicon Cell Line and Virus-Based Assays” (PLoS ONE, 2011)
